In patent US20190350964A1, “ANTI-CANCER COMPOUNDS AND USES THEREOF” (NATIONAL UNIVERSITY OF SINGAPORE, priority 2016, published 2019):
pIC50: −log10 of the molar value.

What was measured:
SCH = assay: MTT cytotoxicity test (GI50); type: cell-based; settings: Homo sapiens, cancer, gastric, MTT 72 h
[1] = molecular target: T1, 3-hydroxybutyrate dehydrogenase type 2 (Homo sapiens, UniProt Q9BUT1); assay: MS-CETSA in normal BJ cell lysates; type: binding; settings: lysate, 100 μM compound
T1 construct: After collecting data covering >8,000 proteins in lysates of normal BJ cells; endogenous in cells; host or cells: normal BJ cells, lysate
T1 sequence (Q9BUT1 whole entry): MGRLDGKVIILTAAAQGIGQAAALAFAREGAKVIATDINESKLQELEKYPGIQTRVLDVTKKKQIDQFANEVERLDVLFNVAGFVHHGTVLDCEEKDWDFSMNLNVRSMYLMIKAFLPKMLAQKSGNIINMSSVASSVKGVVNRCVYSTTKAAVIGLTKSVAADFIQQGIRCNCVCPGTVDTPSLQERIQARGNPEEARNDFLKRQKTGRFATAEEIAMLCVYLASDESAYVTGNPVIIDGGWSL
Procedure: (§2) Target identification was performed by cellular thermal shift assay (CETSA) coupled with quantitative mass spectrometry. In brief, normal BJ cells were lysed by combination of freeze/thaw and mechanical shearing with needle in buffer [50 mM HEPES (pH 7.5), 5 mM β-glycerophosphate, 0.1 mM Sodium Vanadate, 10 mM MgCl2, 1 mM TCEP and 1× Protease inhibitor Cocktail]. The cell debris was removed by centrifugation at 20,000 g for 20 min at 4° C. […] Each lysate was divided into 10 aliquots for heat treatment at the respective temperatures for 3 min in a 96-well thermocycler, followed by 3 min at 4° C. The lysate was centrifuged at 20,000 g for 20 min at 4° C. and the supernatant was transferred into microtubes for MS sample preparation.
(§3) After lysis, at least 100 μg of the protein (measured with a BCA assay) was subjected to reduction, denaturation and alkylation. Samples were subsequently incubated with sequencing grade LysC (Wako) and trypsin (Promega) for digestion overnight at 37° C. The digested samples were dried using a centrifugal vacuum evaporator, solubilized in 100 mM TEAB. […]
(§4) Proteins for which a low temperature plateau was not present were deleted using a cut off >0.85 for the average reading of the first three temperature points (in our experience proteins melting already at −37° C. are more prone to give false positives in a shift analysis).

AGS = assay: MTT cytotoxicity test (GI50); type: cell-based; settings: Homo sapiens, cancer, gastric, MTT 72 h
NCC59 = assay: MTT cytotoxicity test (GI50); type: cell-based; settings: Homo sapiens; NCC59, cancer, gastric; MTT 72 h
Huh7 = assay: MTT cytotoxicity test (GI50); type: cell-based; settings: Homo sapiens, Huh-7; Huh7, cancer, liver; MTT 72 h
[2] = molecular target: T2, Delta(3,5)-Delta(2,4)-dienoyl-CoA isomerase, mitochondrial (Homo sapiens, UniProt Q13011); assay: MS-CETSA in normal BJ cell lysates; type: binding; settings: lysate, 100 μM compound
T2 construct: After collecting data covering >8,000 proteins in lysates of normal BJ cells; endogenous in cells; host or cells: normal BJ cells, lysate
T2 sequence (Q13011 34-328): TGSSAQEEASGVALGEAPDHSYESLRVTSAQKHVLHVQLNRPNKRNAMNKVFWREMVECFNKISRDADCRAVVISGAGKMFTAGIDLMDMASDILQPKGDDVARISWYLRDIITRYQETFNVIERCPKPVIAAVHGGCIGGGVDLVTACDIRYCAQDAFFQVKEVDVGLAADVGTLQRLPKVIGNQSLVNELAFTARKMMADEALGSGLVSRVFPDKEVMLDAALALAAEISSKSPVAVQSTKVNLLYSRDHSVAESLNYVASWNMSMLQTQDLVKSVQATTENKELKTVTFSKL
Procedure: as §2, §3, §4

SNU449 = assay: MTT cytotoxicity test (GI50); type: cell-based; settings: Homo sapiens, SNU-449; SNU449, cancer, liver; MTT 72 h
[3] = molecular target: T3, AP-3 complex subunit sigma-1 (Homo sapiens, UniProt Q92572); assay: MS-CETSA in normal BJ cell lysates; type: binding; settings: lysate, 100 μM compound
T3 construct: After collecting data covering >8,000 proteins in lysates of normal BJ cells; endogenous in cells; host or cells: normal BJ cells, lysate
T3 sequence (Q92572 whole entry): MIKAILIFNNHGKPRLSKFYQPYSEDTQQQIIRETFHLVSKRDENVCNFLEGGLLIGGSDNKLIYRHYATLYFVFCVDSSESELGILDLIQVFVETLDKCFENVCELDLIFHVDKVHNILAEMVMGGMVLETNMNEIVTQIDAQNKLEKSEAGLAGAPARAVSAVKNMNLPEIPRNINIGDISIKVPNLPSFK
T3 sequence (O14617 whole entry partner): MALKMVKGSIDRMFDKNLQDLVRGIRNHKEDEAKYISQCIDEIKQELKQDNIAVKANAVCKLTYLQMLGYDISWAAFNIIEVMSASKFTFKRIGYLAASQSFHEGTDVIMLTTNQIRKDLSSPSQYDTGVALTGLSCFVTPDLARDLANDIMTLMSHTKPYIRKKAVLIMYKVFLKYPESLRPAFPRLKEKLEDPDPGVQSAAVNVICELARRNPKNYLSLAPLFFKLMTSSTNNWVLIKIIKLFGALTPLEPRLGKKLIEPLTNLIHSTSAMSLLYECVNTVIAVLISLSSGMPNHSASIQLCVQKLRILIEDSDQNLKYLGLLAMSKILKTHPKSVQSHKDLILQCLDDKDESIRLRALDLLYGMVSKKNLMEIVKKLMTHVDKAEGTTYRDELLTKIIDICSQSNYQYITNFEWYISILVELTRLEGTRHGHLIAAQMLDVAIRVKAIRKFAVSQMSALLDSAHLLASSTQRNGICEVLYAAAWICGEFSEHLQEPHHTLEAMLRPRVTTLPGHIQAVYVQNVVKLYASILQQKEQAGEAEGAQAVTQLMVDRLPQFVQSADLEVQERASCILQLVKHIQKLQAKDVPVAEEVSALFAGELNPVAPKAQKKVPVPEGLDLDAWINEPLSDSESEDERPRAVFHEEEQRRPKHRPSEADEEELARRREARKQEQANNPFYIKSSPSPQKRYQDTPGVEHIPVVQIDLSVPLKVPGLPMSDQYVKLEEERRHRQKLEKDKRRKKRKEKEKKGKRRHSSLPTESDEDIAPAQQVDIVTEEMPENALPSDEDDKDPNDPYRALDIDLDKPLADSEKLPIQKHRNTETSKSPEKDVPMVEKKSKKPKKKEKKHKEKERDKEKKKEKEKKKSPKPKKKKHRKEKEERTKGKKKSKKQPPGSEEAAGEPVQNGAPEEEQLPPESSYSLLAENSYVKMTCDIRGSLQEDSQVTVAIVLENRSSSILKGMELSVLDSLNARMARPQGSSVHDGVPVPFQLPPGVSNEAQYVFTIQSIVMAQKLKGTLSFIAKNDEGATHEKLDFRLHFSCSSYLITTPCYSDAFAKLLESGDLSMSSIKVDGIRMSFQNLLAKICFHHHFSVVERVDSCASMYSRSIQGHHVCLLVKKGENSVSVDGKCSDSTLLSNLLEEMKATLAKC
T3 sequence (O00203 whole entry partner): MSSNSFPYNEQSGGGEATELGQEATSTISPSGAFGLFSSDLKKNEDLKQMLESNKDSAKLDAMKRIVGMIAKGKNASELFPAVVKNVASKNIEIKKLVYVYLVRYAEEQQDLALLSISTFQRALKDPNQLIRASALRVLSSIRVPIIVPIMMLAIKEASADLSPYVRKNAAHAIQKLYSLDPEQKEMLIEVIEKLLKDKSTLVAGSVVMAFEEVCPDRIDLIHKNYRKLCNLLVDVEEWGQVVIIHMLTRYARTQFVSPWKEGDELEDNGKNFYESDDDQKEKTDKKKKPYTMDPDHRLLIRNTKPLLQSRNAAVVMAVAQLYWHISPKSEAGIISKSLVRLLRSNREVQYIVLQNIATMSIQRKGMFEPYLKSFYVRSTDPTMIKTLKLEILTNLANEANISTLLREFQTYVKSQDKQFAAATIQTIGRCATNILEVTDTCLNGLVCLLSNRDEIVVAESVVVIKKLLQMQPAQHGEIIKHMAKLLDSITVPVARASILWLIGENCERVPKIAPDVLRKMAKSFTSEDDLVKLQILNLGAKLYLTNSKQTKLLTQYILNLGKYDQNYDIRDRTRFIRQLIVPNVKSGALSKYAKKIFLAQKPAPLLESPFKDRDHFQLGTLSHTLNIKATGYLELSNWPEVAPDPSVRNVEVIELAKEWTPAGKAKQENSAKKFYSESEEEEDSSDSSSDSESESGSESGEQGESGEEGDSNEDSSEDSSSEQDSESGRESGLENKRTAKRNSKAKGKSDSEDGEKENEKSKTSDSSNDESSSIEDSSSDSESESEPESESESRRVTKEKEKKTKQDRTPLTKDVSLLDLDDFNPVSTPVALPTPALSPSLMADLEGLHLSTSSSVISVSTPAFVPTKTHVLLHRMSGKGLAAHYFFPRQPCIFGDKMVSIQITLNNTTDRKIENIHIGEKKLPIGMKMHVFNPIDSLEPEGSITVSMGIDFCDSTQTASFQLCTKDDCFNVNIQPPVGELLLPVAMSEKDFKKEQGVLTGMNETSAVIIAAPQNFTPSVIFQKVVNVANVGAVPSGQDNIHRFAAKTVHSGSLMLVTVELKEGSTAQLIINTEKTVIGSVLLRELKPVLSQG
T3 sequence (Q9Y2T2 whole entry partner): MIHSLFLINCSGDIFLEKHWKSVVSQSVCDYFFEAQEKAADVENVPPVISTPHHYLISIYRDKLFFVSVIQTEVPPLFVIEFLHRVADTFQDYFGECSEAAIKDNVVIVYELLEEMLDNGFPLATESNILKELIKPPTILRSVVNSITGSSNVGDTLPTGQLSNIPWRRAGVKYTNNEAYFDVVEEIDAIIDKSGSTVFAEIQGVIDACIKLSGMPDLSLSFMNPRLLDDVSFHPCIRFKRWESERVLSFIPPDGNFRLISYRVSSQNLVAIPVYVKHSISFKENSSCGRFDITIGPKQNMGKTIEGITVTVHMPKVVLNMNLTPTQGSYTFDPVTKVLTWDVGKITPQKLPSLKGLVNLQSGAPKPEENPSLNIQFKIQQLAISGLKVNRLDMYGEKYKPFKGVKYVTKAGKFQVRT
Procedure: as §2, §3, §4

ARPE-19 = assay: MTT cytotoxicity test (GI50); type: cell-based; settings: Homo sapiens; ARPE-19, normal, retina; MTT 72 h
PI5P4Ks = assay: Cellular PI5P4Ks activity assay in HeLa cells (PIP4KII Activity Assay Kit); type: cell-based, human; settings: HeLa cells treated 24 h, lysate assayed with PI(5)P; read-out: IC50, combined cellular PI5P4Ks
Procedure: HeLa cells were treated with DMSO or compounds for 24 h. Cells were lysed with RIPA buffer (Sigma-Aldrich), and total protein concentrations were measured using a bicinchoninic acid protein assay kit (Thermo Scientific). Next, 10 μg of cell lysate was incubated with 1 μM PI(5)P and 500 nM ATP for 1 h at 37° C. PI5P4K activity was measured by recording luminescent signals (Tecan) using a PIP4KII Activity Assay Kit (Echelon) according to the manufacturer's instructions. For cell-free PI5P4Kα activity assays, serial dilutions of compounds were pre-incubated with 1 ng of PI5P4Kα (kind gift from Daiichi Sankyo Co., Ltd. and Daiichi Sankyo RD Novare Co., Ltd.) in reaction buffer [50 mM HEPES (pH 7.0), 13 mM MgCl2, 0.005% CHAPS, 0.01% BSA, 2.5 mM DTT] for 1 h at 25° C. DOPS (80 μM, Avanti polar lipids), PI(5)P (20 μM, Echelon) and ATP (10 μM, Sigma-Aldrich) were added and further incubated for 90 min at room temperature. PI5P4Kα activity was measured by recording luminescent signals (Tecan) using an ADP-Glo Kinase Assay (Promega) according to the manufacturer's protocol.

A549 = assay: MTT cytotoxicity test (GI50); type: cell-based; settings: Homo sapiens; A549, cancer, others, lung; MTT 72 h
Liprin-beta-1 = molecular target: T4, Liprin-beta-1 (Homo sapiens, UniProt Q86W92); assay: MS-CETSA in normal BJ cell lysates; type: binding; settings: lysate, 100 μM compound
T4 construct: After collecting data covering >8,000 proteins in lysates of normal BJ cells; endogenous in cells; host or cells: normal BJ cells, lysate
Procedure: as §2, §3, §4

transformed BJ cells = assay: FACS analysis of the cell cycle (BrdU and PI double staining); type: cell-based, human; settings: 2.5 μM, 48 h
Procedure: (§1) Cell death was assessed via Annexin V and/or PI (propidium iodide) staining according to the manufacturer's instructions (eBioscience). Cell growth arrest was assessed by direct measurement of DNA synthesis through incorporation of the nucleoside analog bromodeoxyuridine (BrdU). Briefly, BrdU (30 μM, Sigma-Aldrich) was added for 2 h before harvesting cells. Cells were subsequently stained with Pacific Blue-conjugated BrdU antibody (Invitrogen) for 1 h followed by PI staining. Stained cells were analyzed by MACSQuant (MACS). Three independent experiments were performed in triplicate. The percentage of Annexin V/PI- or BrdU-positive cells was quantified using Flow Jo software (Becton Dickinson). Where indicated, the combined activity of caspase-3/7 was determined using the caspase-Glo 3/7 Assay Kit (Promega) and normalized to the number of viable cells as determined by MTT assay.

IST1 = assay: MTT cytotoxicity test (GI50); type: cell-based; settings: Homo sapiens; IST1, cancer, gastric; MTT 72 h
Ras/Raf/MEK/ERK pathway = assay: Immunoblot of ERK phosphorylation; type: cell-based, human; settings: normal BJ cells, 24 h
Procedure: Total cell lysates were prepared with 1% triton lysis buffer [25 mM Tris HCl (pH 8.0), 150 mM NaCl, 1% triton-X100, 1 mM dithiothreitol (DTT), protease inhibitor mix (Complete Mini, Roche) and phosphatase inhibitor (PhosphoStop, Roche)] and subjected to SDS-PAGE. The following antibodies were used for immunoblotting: anti-β-actin (Sigma-Aldrich), anti-cleaved PARP (Abcam, #ab32064), anti-PI5P4Kα (#5527), anti-PI5P4Kβ (#9694), anti-cleaved caspase-3 (#9664), anti-pHistone H3(Ser10) (#3377), anti-pAkt(S473) (#9271), anti-pAkt(T308) (#13038), anti-total Akt (#9272), anti-p70S6K(T389) (#9234), anti-total p70S6K (#9202), anti-pErk (#4370), anti-γ-Histone H2AX (#9718) (Cell signaling) and anti-PIK3IP1 (Proteintech, #16826-1-AP). The secondary antibodies used were sheep anti-mouse IgG HRP and donkey anti-rabbit IgG HRP (Amersham; 1:2000 dilution). Immunoreactive proteins were visualized using ECL reagent (Amersham). Where indicated, intensities of protein bands were quantified by densitometry (Odyssey V3.0), normalized to their loading controls and then calculated as fold expression change relative to DMSO control.

RNA-binding protein 4 = molecular target: T5, RNA-binding protein 4 (Homo sapiens, UniProt Q9BWF3); assay: MS-CETSA in normal BJ cell lysates; settings: lysate, 100 μM compound
T5 construct: After collecting data covering >8,000 proteins in lysates of normal BJ cells; endogenous in cells; host or cells: normal BJ cells, lysate
T5 sequence (Q9BWF3 whole entry): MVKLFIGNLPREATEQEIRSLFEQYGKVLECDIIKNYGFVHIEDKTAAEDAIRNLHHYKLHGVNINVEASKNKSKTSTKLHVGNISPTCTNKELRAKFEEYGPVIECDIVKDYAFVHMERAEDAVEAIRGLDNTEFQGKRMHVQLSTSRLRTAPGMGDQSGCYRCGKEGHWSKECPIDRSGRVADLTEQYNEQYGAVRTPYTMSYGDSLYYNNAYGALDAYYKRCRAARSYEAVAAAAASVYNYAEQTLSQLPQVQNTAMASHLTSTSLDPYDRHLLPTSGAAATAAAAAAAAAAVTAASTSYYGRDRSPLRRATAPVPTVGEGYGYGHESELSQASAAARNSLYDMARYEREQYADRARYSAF
Procedure: as §2, §3, §4

Adenosine kinase = molecular target: T6, Adenosine kinase (Homo sapiens, UniProt P55263); assay: MS-CETSA in normal BJ cell lysates; type: binding; settings: lysate, 100 μM compound
T6 construct: After collecting data covering >8,000 proteins in lysates of normal BJ cells; endogenous in cells; host or cells: normal BJ cells, lysate
T6 sequence (P55263 whole entry): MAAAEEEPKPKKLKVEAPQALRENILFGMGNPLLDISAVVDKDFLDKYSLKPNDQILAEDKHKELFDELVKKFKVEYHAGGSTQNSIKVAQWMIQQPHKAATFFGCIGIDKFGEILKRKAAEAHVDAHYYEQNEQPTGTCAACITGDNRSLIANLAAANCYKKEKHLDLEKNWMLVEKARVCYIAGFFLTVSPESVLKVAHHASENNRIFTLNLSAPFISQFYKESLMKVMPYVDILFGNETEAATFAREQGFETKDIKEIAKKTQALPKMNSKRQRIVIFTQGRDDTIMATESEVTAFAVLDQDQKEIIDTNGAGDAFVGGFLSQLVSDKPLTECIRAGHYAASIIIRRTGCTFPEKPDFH
Procedure: as §2, §3, §4

normal BJ cells [4] = assay: γ-H2AX immunofluorescence (DNA damage); type: cell-based, human; settings: 48 h; a131 2.5 and 5 μM, etoposide 100 μM
Procedure: For immunofluorescence analysis, cells grown on coverglass-bottom chamber slides (Lab-Tek) were fixed with 4% PFA (paraformaldehyde) for 15 min at 25° C. The fixed cells were permeabilized with 0.5% Triton X-100 and exposed to TBS containing 0.1% Triton X-100 and 2% BSA (AbDil). The following primary antibodies were diluted in PBS containing 1% BSA and 0.1% Triton X-100: anti-γ-tubulin (Sigma-Aldrich, #T6557; 1:1000) and anti-β-tubulin (Abcam, #ab18207; 1:2000). […] Cells were counterstained with DAPI (Thermo Scientific). […] For time-lapse live-cell analysis, a Stage Top Incubator with Digital CO2 mixer (Tokai) was used, and images were acquired at 37° C.

normal BJ cells [5] = assay: BrdU incorporation / cell growth arrest; type: cell-based, human
Procedure: as §1

Structure (SMILES): N#C/C(=C\c1cccc2cnccc12)c1c[nH]c2ccccc12 [a131, (Z)-2-(1H-indol-3-yl)-3-(5-isoquinolyl)prop-2-enenitrile]
- GI50 (SCH): 1700 nM
- ED score [1]: 0.5139
- ΔTm at 100 µM ([1]; read-out: mean Delta Tm): 1.83 °C
- GI50 (AGS): 1100 nM
- GI50 (NCC59): 900 nM
- GI50 (Huh7): 1200 nM
- ED score [2]: 0.3541
- ΔTm at 100 µM ([2]; read-out: mean Delta Tm): 1.51 °C
- GI50 (SNU449): 2300 nM
- ED score [3]: 0.3486
- ΔTm at 100 µM ([3]; read-out: mean Delta Tm): 2.26 °C
- GI50 (ARPE-19): > 10000 nM
- pIC50 (PI5P4Ks): 6.22
- GI50 (A549): 2000 nM
- ED score (Liprin-beta-1): 0.3387
- ΔTm at 100 µM (Liprin-beta-1; read-out: mean Delta Tm): 2.07 °C
- aneuploidy (>4N) (transformed BJ cells): significantly induced aneuploidy (>4N) only in transformed BJ cells
- cell death (<2N, subG1) (transformed BJ cells; transformed versus normal BJ cells): dramatically induced cell death (<2N) through apoptosis
- GI50 (IST1): 2200 nM
- inhibition of the Ras/Raf/MEK/ERK pathway (ERK phosphorylation) (Ras/Raf/MEK/ERK pathway): Neither a131 and a166 treatment nor PI5P4Ks knockdown inhibited
- ED score (RNA-binding protein 4): 0.3323
- ΔTm at 100 µM (RNA-binding protein 4; read-out: mean Delta Tm): 1.88 °C
- ED score (Adenosine kinase): 0.4158
- ΔTm at 100 µM (Adenosine kinase; read-out: mean Delta Tm): 1.74 °C
- DNA damage (γ-H2AX staining) (normal BJ cells [4]): did not do so
- cell cycle arrest (BrdU incorporation) (normal BJ cells [5]; 2.5 μM, 48 h): arrested normal BJ cells at the G1/S phase of the cell cycle with few BrdU incorporation
- reversibility of growth arrest after drug removal (normal BJ cells [5]; 5 μM for 2 or 4 days, then fresh media up to 11 days): transient and reversible after a131 removal
